Patent publication US20040110693A1, “Agent for treating diabetes mellitus” (priority 2001, published 2004)
Values joined by “and” are separate entries in the source; they are usually repeats but may differ in a detail not shown here. Equal values may be shown once.

Key:
normal persons = assay: Side effects in normal persons after 50-75 g of sucrose instead of test breakfast; type: in vivo, human; conditions: 100 mg
type II diabetics = assay: Short-term experiments with alpha-glucosidase inhibitors and bulk materials: blood sugar increase after test breakfast; conditions: for action compared with bulk material: levelling of blood sugar increase after eating; for Hypoglycemia, MG 100, mean value: mean of 6 cases
Description: After measurement of the fasting blood sugar in the morning, 20 type II diabetics received a test breakfast (75 g of white bread, 20 g of butter, 40 g of jam or, as a sugar-free variant, 75 g of white bread, 20 g of butter and 40 g of cheese). On the control days, before the test breakfast 75 ml of yoghurt were given, and on the test days the various bulk materials were given in 75 ml of yoghurt. […] After the test breakfast, the blood sugar values were measured at ½ to 1 hour intervals for 2-4 hours. Each short-term experiment was carried out two to three times with the individual subjects. The respective average values are indicated.
The basis for the evaluation is the graphic representation of the blood sugar values as curves. The increasing phase of the blood sugar lasting 1-2 hours is determined planimetrically and considered as a measure of the lower limit of glucose absorption. In the first hour after the test breakfast, under physical quasi-resting conditions the increase in the blood sugar curve ought to reflect the intestinal glucose absorption into the blood almost unadulteratedly on the morning of the experiment in the diabetic differently from in the healthy person. Beyond the first hour, even in most type II diabetics an insulin response commences more or less clearly which levels off the blood sugar increase, or conversely in any case leads to a corresponding underestimation of the glucose absorption. […] The planimetric evaluation of all curves is then extended until achieving the peak of the last curve. […] For practical reasons, we compare the increasing phases of the blood sugar curves under the various experimental conditions (control, after bulk material, in the later experiments also after alpha-glucosidase inhibitors) with one another and calculate from this the degree of hypoglycemia based on the control curve. […] The statistical evaluation, which is possible only in the short-term experiments on account of the amounts of data, is carried out using the student's t test in a paired comparison.
21 patients were investigated: 10 each received acarbose and miglitol, 1 patient first acarbose and then miglitol. The individual dose used was 25-100 mg.
Immediately before the test meals described above, the subjects received either a) 75 ml of yoghurt (control experiment) or b) bulk material in yoghurt (bulk curve) or c) a tablet of acarbose or miglitol and then 75 ml of yoghurt (alpha-GI curve) or d) this medicament 5 minutes before taking bulk material in yoghurt (bulk-plus alpha-GI curve). As described, the blood sugar values were determined before and for 3 hours after the test meal.

[1] = 50 mg on its own (acarbose 2 cases, miglitol 8 cases)

SMILES	symptoms after 50-75 g of sucrose (normal persons)	concomitant symptoms (type II diabetics; [1])	Hypoglycemia (decrease in the blood sugar increase after a test breakfast), Alpha-GI (type II diabetics; AB 50 mg, individual patient)	Hypoglycemia (decrease in the blood sugar increase after a test breakfast), Alpha-GI (type II diabetics; AB 100 mg, individual patient)	action compared with bulk material (type II diabetics)	concomitant symptoms (type II diabetics; 25 mg on its own (5 cases))	Hypoglycemia (decrease in the blood sugar increase after a test breakfast), Alpha-GI (type II diabetics; MG 25 mg, individual patient)	Hypoglycemia (decrease in the blood sugar increase after a test breakfast), Alpha-GI (type II diabetics; MG 50 mg, individual patient)	Hypoglycemia (decrease in the blood sugar increase after a test breakfast), Alpha-GI (type II diabetics; MG 100 mg, individual patient)	Hypoglycemia, MG 100 (type II diabetics; miglitol 100 mg on its own, individual patient)	Hypoglycemia, MG 100, mean value (type II diabetics; miglitol 100 mg on its own)	Hypoglycemia, MG 100, mean value (type II diabetics; miglitol 100 mg on its own, listed as miglitol)	patients with semiliquid stools as far as diarrhea (type II diabetics; on its own, short-term experiments)
CC1OC(OC2C(CO)OC(OC3C(CO)OC(O)C(O)C3O)C(O)C2O)C(O)C(O)C1NC1C=C(CO)[C@@H](O)[C@H](O)[C@H]1O (stereo partly shown) [AB, acarbose]	abdominal pain and diarrhea occurred	no clear concomitant symptoms	42% and 50%	41% and 63% (2×) and 56% and 65% and 6% and 55% and 39% and 58% and 59%	considerably stronger action than bulk material								
OCCN1C[C@H](O)[C@@H](O)[C@H](O)[C@H]1CO [MG, miglitol]	abdominal pain and diarrhea occurred	no clear concomitant symptoms			considerably stronger action than bulk material	no clear concomitant symptoms	27% and 47% and 12% and 53% and 49% and 24%	33% and 40% and 37% and 62% (2×) and 25% and 59% and 71%	24% and 60% and 80% and 59% and 32% and 66% and 75% and 34% and 73%	66% and 75% and 34% and 80% and 59% and 32%	57.7%	58%	4 of 9 patients
